Laboratory results from US20210330599A1, “Nanoparticles for Controlled Release of Anti-Biofilm Agents and Methods of Use” (University of Rochester, priority 2016, published 2021).
Where “and” joins values, the source holds several entries; their conditions need not be identical. Identical values can stand only once.

Assays:
[1] = Encapsulation of fluoride using NPC; type: physicochemical; settings: preliminary studies
From the text: (§1) In addition, amine fluoride is known to have antibacterial properties.

S. mutans UA159 biofilms = assay: S. mutans biofilm on sHA discs, topical treatment regimen (Example 2); type: cell-based, Streptococcus mutans; settings: equivalent farnesol dose / controls
Procedure: Biofilms of S. mutans UA159 were formed on saliva coated hydroxyapatite (sHA) surfaces (12.7 mm in diameter, 1 mm in thickness, Clarkson Chromatography Products Inc., South Williamsport, Pa.) as detailed elsewhere (Koo et al., 2010, J Bacteriol, 192(12):3024-32). […] Disks were pretreated with the above-described solutions for 10 min, washed twice with sterile saline, and transferred back to culture media. […] Biofilms were allowed to form on the discs without interruption for 6 hours at which point a second treatment was applied. The next day, biofilms were treated every 6 hours for a total of 3 treatments and the culture media was changed twice. After 48 hours, the amount of colony forming units (CFU) per dry-weight of biofilms was assessed. Briefly, the biofilms were removed and homogenized, then plated onto blood agar plates, and after incubation at 37° C., 5% CO2, the CFUs were counted as described previously (Koo et al., 2003, J Antimicrob Chemother, 52(5):782-9).

Streptococcus mutans = settings: cited from earlier work
[2] = system: Streptococcus mutans UA159 biofilms; assay: S. mutans biofilm on sHA discs, topical treatment regimen (Example 3); type: cell-based; settings: 7 topical applications over 54 h
Procedure: Streptococcus mutans UA159, a well-characterized EPS matrix producing and cariogenic pathogen (W. H. Bowen and H. Koo, Caries Res., 2011, 45, 69-86), was used to assess the effect of nanoparticle-mediated delivery of farnesol on biofilm formation using a topical treatment regimen (Horev et al., ACS Nano, 2015, 9, 2390-2404; Koo et al., J. Antimicrob. Chemother., 2003, 52, 782-789). The treatment solutions were: free nanoparticles (1.9 mg ml^−1 in PBS, pH 7.0), farnesol-loaded nanoparticles (1.9 mg ml^−1 loaded with 0.5 mg ml^−1 farnesol, in PBS, pH 7.0), free farnesol (0.5 mg ml^−1 farnesol, in PBS, pH 7.0, 20% ethanol (EtOH)), vehicle control for free farnesol (PBS, pH 7.0, 20% EtOH), and PBS (pH 7.0). A 20% v/v ethanol solution was used as a vehicle to solubilize free farnesol, which is otherwise insoluble in aqueous media (Koo et al., J. Antimicrob. Chemother., 2003, 52, 782-789). […]
The sHA discs and biofilms were treated for 10 min, washed twice with sterile saline (0.89% NaCl), and transferred to culture media. […] Aliquots of biofilm suspension were serially diluted and plated onto blood agar plates, and after 48 h incubation (37° C. and 5% CO2), the colonies were visually counted. […]

[3] = monomer / monomer residue; cited from earlier work
S. mutans cells = system: S. mutans cells
From the text: as §1

[4] = pKa and protonation values of monomers and polymers; type: physicochemical; settings: FIG. 22
[5] = farnesol on one degradable tether length (6 degradable bonds)

For `[F-].[Na+]` [sodium fluoride], which “compatibility with loading into NPC” value [1] is on record?
Its value is “not compatible with loading into or onto the NPC”.

Which results are given for `CC(C)=CCCC(C)=CCCC(C)=CCO` [farnesol]?
effect on biofilm CFU relative to PBS (S. mutans UA159 biofilms): no effect on CFU relative to PBS; MIC of farnesol (Streptococcus mutans): < 0.028 mg/mL; CFUs per biofilm dry weight / antibiofilm efficacy [2]: only a modest reduction

With propylacrylic acid [PAA] as the compound, how does the pKa of monomer [3] read?
The pKa of monomer was ~7 and 6.8-7.0.

For Amine fluoride, which biofilm formation (S. mutans cells) is on record?
The biofilm formation was “inhibit biofilm formation”.

What about the “killing of S. mutans cells” value (S. mutans cells) of the same compound?
The value was “able to kill S. mutans cells at the μM level”.

For `C=C(C)C(=O)OCCN(CC)CC` [DEAEMA, diethylaminoethyl methacrylate], which pKa of monomer [3] is on record?
The pKa of monomer was about 7.

With ethylacrylic acid [EAA] as the compound, how does the “pKa of synthesized imidazole and ethylacrylic acid functionalities” value [4] read?
The value was 6.3.

What about the pKa of monomer [3] of the same compound?
Its pKa of monomer is ~6.3 and 6.3-6.5.

With `C=C(C)C(=O)O` [MAA, methacrylic acid] as the compound, how does the pKa of monomer [3] read?
Its pKa of monomer is about 4.6.

Which pKa of monomer [3] does the source give for `C=C(C)C(=O)OCCN(C)C` [DMAEMA, dimethylaminoethyl methacrylate] here?
The pKa of monomer was ~7.2 and 7.2-7.4.

With “poly(dimethylaminoethyl methacrylate)-b-poly(dimethylaminoethyl methacrylate-co-propylacrylic acid-co-butyl methacrylate) [NPC]” as the compound, how does the “duration of sustained delivery of farnesol” value [5] read?
The value was “up to 6 days”.

With Imidazole methacrylate [IMA] as the compound, how does the pKa of monomer [3] read?
The pKa of monomer was 6.9-7.0.
